This is an account of results in paper PMC8290231 (Cancer Medicine, 2021).

One experiment relates to Ba/F3(+IL‐3). Put plainly: CCK-8 proliferation assay in parental Ba/F3 cells. The note with it: Mus musculus, read-out: IC50 (μΜ) Ba/F3(+IL‐3). Format: cell-based. The method, then: (§1) The Ba/F3 cell lines stably expressing FGFR1, FGFR1‐V561M, FGFR1‐V561F, FGFR1‐K656N, and FGFR1‐K656E were self‐established through electroporation pCDNA3.1‐TEL plasmids using the Amaxa Cell Line Nucleofector Kit V (Lonza, Cologne, Germany). Stable cell lines were selected by G418 (Merck, USA) and then withdrawal of IL‐3 (R&D). […] Parental Ba/F3 cells were maintained in RPMI 1640 supplemented with 10% FBS, 100 U/ml of penicillin, […] of streptomycin, and 10 ng/ml of IL‐3, while all Ba/F3 stable cell lines were cultured in the same medium without IL‐3.
(§2) Cells were seeded in 96‐well plate in complete medium (1000–6000 cells/well) and cultured for overnight. Then the cells were exposed to gradient concentrations (0.0005–10 μM) of compounds. Cell proliferation was analyzed by Cell Counting Kit 8 (CK04, Dojindo Laboratories, Japan) after co‐incubation for a further 72 h. IC50 values were calculated by fitting of concentration–response curves using GraphPad Prism 8.01 software. Each assay was repeated at least three times.
(§3) There is, however, no commercially available FGFR1 mutant kinase to validate this. Therefore, we constructed Ba/F3 model cells stably expressing FGFR1‐WT, K656E, K656N, V561M, and V561F mutations.

Experiment [1] relates to Ba/F3‐FGFR1‐V561F. Put plainly: Cell cycle analysis by flow cytometry (propidium iodide). It is filed as cell-based. The note with it: 1000 nM. The method, then: About 6 × 10^5 cells were re‐suspended in 150 μl of BD Cytofix/Cytoperm buffer solution I for 10 min at room temperature. The cell suspensions were added with BD Cytofix/Cytoperm buffer solution II and incubated with another 10 min at room temperature, and then incubated with 200 μl of propidium iodide buffer (0.1 mg/ml) in the dark for 10 min at 4℃. Assays were performed with a Guava easyCyte flow cytometer (Merck, USA).

Experiment [2] deals with Ba/F3‐FGFR1‐V561F. Description: Apoptosis assay by flow cytometry (Annexin V / 7-AAD). It is filed as cell-based. The note with it: 1000 nM. The method, then:
After incubation, cells were collected and washed twice with pre‐cold PBS. About 6 × 10^5 cells were resuspended in 100 μl of 1× BD binding buffer solution (#556454, BD), and then stained with 7‐ADD (#559925, BD) and Annexin V‐PE (#556422, BD) in the dark for 15 min. Finally, 400 μl of 1×BD binding buffer solution were added to stop dyeing. The cells were then measured on a Guava easyCyte flow cytometer (Merck, USA).
(In general: Flow cytometry measures light scatter and fluorescence of single cells or particles in a stream.)

A further experiment relates to A204. Put plainly: CCK-8 cell proliferation assay. It is filed as cell-based. The note with it: Homo sapiens, read-out: antiproliferative IC50, A204. The procedure: (§4) The base medium for MDA‐MB‐453 cell line is DMEM medium (CORNING, USA). All other cell lines were cultured in RPMI‐1640 medium supplemented with 10% FBS, 100 U/ml of penicillin, and […] of streptomycin in 5% CO2 at 37℃. The cells in the logarithmic growth phase were used for the experiments.
as §2
(§5) The expression and activation levels of FGFR1–4 in these cells were determined via western blot experiments (Figure S1).
In general terms: Tetrazolium dyes change colour on reduction, which living cells bring about.

For another experiment, the system named is A549. Description: CCK-8 cell proliferation assay. Format: cell-based. The note with it: Homo sapiens, A549, 72 h, read-out: antiproliferative IC50, A549. The method, then: as §4, §2, §5
A further experiment relates to H1581. Put plainly: CCK-8 cell proliferation assay. It is filed as cell-based. The note with it: Homo sapiens, read-out: antiproliferative IC50, H1581. The procedure:
as §4, §2, §5

For a further experiment, the system named is KATOIII. Put plainly: CCK-8 cell proliferation assay. Format: cell-based. The note with it: Homo sapiens, KATO III, read-out: antiproliferative IC50, KATOIII. The method, then:
as §4, §2, §5

A further experiment relates to MDA‐MB‐231. Description: CCK-8 cell proliferation assay. Format: cell-based. The note with it: Homo sapiens, MDA-MB-231, 72 h. The method, then:
as §4, §2, §5

Another experiment has as its system MDA‐MB‐453. Put plainly: CCK-8 cell proliferation assay. It is filed as cell-based. The note with it: Homo sapiens, read-out: antiproliferative IC50, MDA‐MB‐453. The method, then:
as §4, §2, §5

The test system of a further experiment is MKN‐1. Put plainly: CCK-8 cell proliferation assay. It is filed as cell-based. The note with it: Homo sapiens, read-out: antiproliferative IC50, MKN‐1. The method, then:
as §4, §2, §5

For another experiment, the system named is NCI‐H716. Put plainly: CCK-8 cell proliferation assay. The note with it: Homo sapiens, read-out: antiproliferative IC50, NCI‐H716. It is filed as cell-based. The procedure:
as §4, §2, §5

In a further experiment the test system is RT112. Description: CCK-8 cell proliferation assay. It is filed as cell-based. The note with it: Homo sapiens, read-out: antiproliferative IC50, RT112. The method, then: as §4, §2, §5
In the next experiment the test system is SNU16. Description: CCK-8 cell proliferation assay. Format: cell-based. The note with it: Homo sapiens, SNU-16, 72 h, read-out: antiproliferative IC50, SNU16. The method, then:
as §4, §2, §5

The subject of another experiment is Ba/F3‐FGFR1. Description: CCK-8 proliferation assay in Ba/F3 stable cells. It is filed as cell-based. The note with it: Mus musculus, BaF3, 72 h, read-out: IC50 (μΜ) Ba/F3‐FGFR1. The method, then:
as §1, §2, §3

The next experiment deals with Ba/F3‐FGFR1‐K656E. Put plainly: CCK-8 proliferation assay in Ba/F3 stable cells. The note with it: Mus musculus, BaF3, 72 h, read-out: IC50 (μΜ) Ba/F3‐FGFR1‐K656E. It is filed as cell-based. The method, then:
as §1, §2, §3

The next experiment concerns Ba/F3‐FGFR1‐K656N. Description: CCK-8 proliferation assay in Ba/F3 stable cells. It is filed as cell-based. The note with it: Mus musculus, BaF3, 72 h, read-out: IC50 (μΜ) Ba/F3‐FGFR1‐K656N. The procedure:
as §1, §2, §3

The test system of experiment [3] is Ba/F3‐FGFR1‐V561F. Description: CCK-8 proliferation assay in Ba/F3 stable cells. Format: cell-based. The note with it: Mus musculus, BaF3, 72 h, read-out: IC50 (μΜ) Ba/F3‐FGFR1‐V561F. The procedure:
as §1, §2, §3

A further experiment relates to Ba/F3‐FGFR1‐V561M. Put plainly: CCK-8 proliferation assay in Ba/F3 stable cells. Format: cell-based. The method, then:
as §1, §2, §3

The subject of another experiment is FGFR1‐V561M. The note with it: no reference given; cited from earlier work.
The next experiment relates to FGFR1 WT. The note with it: no reference given; cited from earlier work.

Structures are written as SMILES. Like-named read-outs stand apart in the source and are kept apart here.

Consider `CCN1C(=O)N(c2c(F)c(OC)cc(OC)c2F)Cc2cnc3[nH]c(CN4CCOCC4)cc3c21` [Pemigatinib], for which the IC50 with Ba/F3(+IL‐3) (BaF3, parental cells with IL-3, CCK-8, 72 h) is 8980 ± 1400 nM.
With `C=CC(=O)N1CC[C@H](n2nc(C#Cc3cc(OC)cc(OC)c3)c3c(N)ncnc32)C1` [TAS120], in the experiment on Ba/F3‐FGFR1‐V561F [1], the “effect on cell cycle” value is on record as “weak effect”. Moreover, the effect on apoptosis entry in the experiment on Ba/F3‐FGFR1‐V561F [2] was “weak effect”.
For the compound `Cc1ccc(C(=O)Nc2ccc(CN3CCN(C)CC3)c(C(F)(F)F)c2)cc1C#Cc1cnc2cccnn12` [Ponatinib], the IC50 in the experiment on A204 (A204, 72 h) came out at 169 ± 134 nM; in the experiment with A549, 990 ± 54.1 nM; with H1581 (NCI-H1581, 72 h), 128 ± 19.1 nM; with KATOIII (72 h), 18.7 ± 0.8 nM; with MDA‐MB‐231 (read-out: antiproliferative IC50, MDA‐MB‐231), 701 ± 69.9 nM; with MDA‐MB‐453 (MDA-MB-453, 72 h) it was 707 ± 26.4 nM. Besides, the IC50 came to 758 ± 72 nM in the experiment with MKN‐1 (MKN-1, 72 h); 26.4 ± 2.9 nM in the experiment on NCI‐H716 (NCI-H716, 72 h); 216 ± 8.2 nM in the experiment with RT112 (RT-112, 72 h); 78.2 ± 10.2 nM with SNU16; 33 ± 2.8 nM with Ba/F3‐FGFR1; 88 ± 28 nM in the experiment on Ba/F3‐FGFR1‐K656E. Moreover, the IC50 with Ba/F3‐FGFR1‐K656N worked out at 47 ± 8.8 nM; with Ba/F3‐FGFR1‐V561F [3] it was 56 ± 9 nM; with Ba/F3‐FGFR1‐V561M (Mus musculus, BaF3, 72 h, read-out: IC50 (μΜ) Ba/F3‐FGFR1‐V561M) it was 400 ± 11 nM; in the experiment on Ba/F3(+IL‐3) (BaF3, 72 h), 2380 ± 420 nM. Also, in the experiment with Ba/F3‐FGFR1‐V561M, the “fold increase of IC50 value, Ba/F3‐FGFR1‐V561M compared to Ba/F3‐FGFR1‐WT” value is 10 fold. Further, the “reported FGFR1‐V561M kinase inhibitory activity” value in the experiment with FGFR1‐V561M is 18.6. Also, the “reported FGFR1 WT kinase inhibitory activity” value with FGFR1 WT is recorded as 1.6.
In the case of `COCCNc1cc(NC(=O)N2CCCc3cc(CN4CCN(C)CC4=O)c(C=O)nc32)ncc1C#N` [FGF401], the IC50 with A204 (A204, FGFR1 amplification, CCK-8, 72 h) was 8250 ± 708 nM; in the experiment with A549 (negative control, CCK-8, 72 h) it was over 10000 nM; in the experiment on H1581 (NCI-H1581, FGFR1 amplification, CCK-8, 72 h) it was over 10000 nM; with KATOIII (FGFR2 amplification, CCK-8, 72 h), 9380 ± 2860 nM; in the experiment on MDA‐MB‐231 (read-out: antiproliferative IC50, MDA‐MB‐231, negative control, CCK-8, 72 h) it was over 10000 nM; in the experiment with MDA‐MB‐453 (MDA-MB-453, FGFR4‐Y367C, CCK-8, 72 h), 62.3 ± 27.7 nM. In addition, the IC50 was over 10000 nM in the experiment on MKN‐1 (MKN-1, negative control, CCK-8, 72 h); over 10000 nM in the experiment with NCI‐H716 (NCI-H716, FGFR2 amplification, CCK-8, 72 h); over 10000 nM with RT112 (RT-112, FGFR3‐TACC3, CCK-8, 72 h).
